In patent US20250354986A1, “AFFINITY ENCODED OSCILLATOR ARRAYS, METHODS, AND RELATED ASPECTS FOR MEASURING MOLECULAR BINDING KINETICS” (ARIZONA BOARD OF REGENTS ON BEHALF OF ARIZONA STATE …, priority 2024, published 2025):
Structures can show the parent of a compound that is named as a salt.

Legend:
decoding sequence 1 = conditions: for averaged equilibrium affinity constant (KA): first barcode group hybridized with its DNA decoding sequence, 37 individual nano-oscillators per probe; for Median of amplitude change for association: group 1 barcode nano-oscillators, hybridization signal
Procedure: (§1) To enable affinity-based barcoding, it is important to ensure nanoarrays are addressable by distinct affinities induced by different nucleotides mismatches. […] Perfectly matched, two and three-nucleotide mismatched complementary single DNA strains were used as barcode sequences on the nanocomplexes. Attributed to the charge-sensitive detection capability of nano-oscillators, hybridization of the charge-rich decoding DNA onto the nano-oscillators were recorded in real-time, enabling the calculation of hybridization affinities.
(§2) In FIG. 8, for each kind of barcode sequence, 37 individual nano-oscillators were measured for statistical study.
(§3) The second step of the measurement is decoding, which identifies the type of GPCRs on individual nano-oscillators, and was achieved by sequentially measuring the binding affinity of all decoding sequences. Each round of decoding flowed 50 nM of a specific readout sequence to hybridize with the barcodes on the nano-oscillator for 550 seconds, followed by buffer washing to dissociate the readout sequence for a duration of 250 seconds. Conducting the ligand screening before decoding can prevent potential issue of saturated oscillation amplitude change that may arise from excessively high negatively charged nano-oscillators after hybridization with the decoding sequence. Throughout all experiments, the injected sample was driven by a syringe pump and flowed onto the upper right portion of the field-of-view to minimize mass transport issues.
(§4) After recording the images, a region of interest (ROI) was selected on each particle (covering the parabolic tail), and the mean intensity within the ROI was calculated as the plasmonic intensity. An adjacent region with the same size was selected as the reference region, and its intensity was used to remove common noise from the ROI. The oscillation amplitude was obtained in every second using fast Fourier transform (FFT). The FFT intensity at the oscillation frequency was then plotted against time to illustrate both the binding trend and decoding process. Response curve fitting and calculation of binding kinetic constants were conducted using Scrubber (BioLogic Software). All data were visualized using Origin and MATLAB.

decoding sequence 2 = conditions: for Median of amplitude change for association: group 2 barcode nano-oscillators, hybridization signal; for averaged equilibrium affinity constant (KA): second barcode group hybridized with its DNA decoding sequence, 37 individual nano-oscillators per probe
Procedure: as §1, §2, §3, §4

[1] = stated without a test; cited from earlier work
[2] = tested on: K082 virions with no GPCR displayed on the envelope; experiment: Control nano-oscillators: K082 virion with no GPCR, or AuNP only; conditions: K082 virion with no GPCR displayed, or AuNP only without virion
Procedure: By fitting the binding curves with the first order kinetics model, the associate rate constant, dissociate rate constant and equilibrium constants for each nano-oscillator were obtained. […] To validate the individual nano-oscillator results, interactions of the same ligand with high density ensemble virion-oscillators were measured (FIG. 15). The binding response curves are the averaged oscillation amplitude of the entire ensemble area as a function of time. […] This phenomenon is likely due to the heterogeneity in GPCR expression level among individual virions, which will affect maximum binding signal, but not the binding kinetics.

Molecule | averaged equilibrium affinity constant (KA) (decoding sequence 1) | Median of amplitude change for association (decoding sequence 1) | Median of amplitude change for association (decoding sequence 2) | averaged equilibrium affinity constant (KA) (decoding sequence 2) | also measured
biotin-(CH2)6-5′-ACACTACCTCGGCCCTCCTC-3′ [barcode 2 (group 1)] | (5.3±0.74)×10^7 M^−1 | 9.6 nm |  |  | 
biotin-(CH2)6-5′-GAGTTGCTACAGACCTTCGT-3′ [barcode 1 (group 2)] |  |  | 11.6 nm | (7.1±0.98)×10^8 M^−1 | 
Tocrifluor |  |  |  |  | charge at pH 7.4 [1]: neutral
CC(C)NCC(O)COc1cccc2ccccc12 (centres unmarked) [Propranolol, Propranolol hydrochloride] |  |  |  |  | oscillation amplitude response of control nano-oscillators to ligand [2]: not obvious responding
biotin-(CH2)6-5′-ACACTACCTCAGCCCTCCTC-3′ [barcode 3 (group 1)] | (5.9±0.82)×10^6 M^−1 | 7.5 nm |  |  | 
biotin-(CH2)6-5′-GAGTTACTACAGACCATCGT-3′ [barcode 2 (group 2)] |  |  | 10.9 nm | (6.5±1.1)×10^7 M^−1 | 
biotin-(CH2)6-5′-ACACTACCTCAGCCCTCCTC-3′ [barcode 3 (group 2)] |  |  | 7.2 nm | (2.0±0.78)×10^6 M^−1 | 
biotin-(CH2)6-5′-ACAATACCTCGGCCCTTCTC-3′ [barcode 1 (group 1)] | (8.1±1.1)×10^8 M^−1 | 9.7 nm |  |  | 
